Data published in ChEMBL document CHEMBL1143454, “Arylphthalazines: identification of a new phthalazine chemotype as inhibitors of VEGFR kinase” (Bioorg Med Chem Lett, 2005).

Target: Vascular endothelial growth factor receptor 2 (Homo sapiens, UniProt P35968)
Experiment: Inhibition of Vascular endothelial growth factor receptor 2 kinase phosphorylation of pGAT-biotin peptide

Chain of Vascular endothelial growth factor receptor 2 (P35968 whole entry): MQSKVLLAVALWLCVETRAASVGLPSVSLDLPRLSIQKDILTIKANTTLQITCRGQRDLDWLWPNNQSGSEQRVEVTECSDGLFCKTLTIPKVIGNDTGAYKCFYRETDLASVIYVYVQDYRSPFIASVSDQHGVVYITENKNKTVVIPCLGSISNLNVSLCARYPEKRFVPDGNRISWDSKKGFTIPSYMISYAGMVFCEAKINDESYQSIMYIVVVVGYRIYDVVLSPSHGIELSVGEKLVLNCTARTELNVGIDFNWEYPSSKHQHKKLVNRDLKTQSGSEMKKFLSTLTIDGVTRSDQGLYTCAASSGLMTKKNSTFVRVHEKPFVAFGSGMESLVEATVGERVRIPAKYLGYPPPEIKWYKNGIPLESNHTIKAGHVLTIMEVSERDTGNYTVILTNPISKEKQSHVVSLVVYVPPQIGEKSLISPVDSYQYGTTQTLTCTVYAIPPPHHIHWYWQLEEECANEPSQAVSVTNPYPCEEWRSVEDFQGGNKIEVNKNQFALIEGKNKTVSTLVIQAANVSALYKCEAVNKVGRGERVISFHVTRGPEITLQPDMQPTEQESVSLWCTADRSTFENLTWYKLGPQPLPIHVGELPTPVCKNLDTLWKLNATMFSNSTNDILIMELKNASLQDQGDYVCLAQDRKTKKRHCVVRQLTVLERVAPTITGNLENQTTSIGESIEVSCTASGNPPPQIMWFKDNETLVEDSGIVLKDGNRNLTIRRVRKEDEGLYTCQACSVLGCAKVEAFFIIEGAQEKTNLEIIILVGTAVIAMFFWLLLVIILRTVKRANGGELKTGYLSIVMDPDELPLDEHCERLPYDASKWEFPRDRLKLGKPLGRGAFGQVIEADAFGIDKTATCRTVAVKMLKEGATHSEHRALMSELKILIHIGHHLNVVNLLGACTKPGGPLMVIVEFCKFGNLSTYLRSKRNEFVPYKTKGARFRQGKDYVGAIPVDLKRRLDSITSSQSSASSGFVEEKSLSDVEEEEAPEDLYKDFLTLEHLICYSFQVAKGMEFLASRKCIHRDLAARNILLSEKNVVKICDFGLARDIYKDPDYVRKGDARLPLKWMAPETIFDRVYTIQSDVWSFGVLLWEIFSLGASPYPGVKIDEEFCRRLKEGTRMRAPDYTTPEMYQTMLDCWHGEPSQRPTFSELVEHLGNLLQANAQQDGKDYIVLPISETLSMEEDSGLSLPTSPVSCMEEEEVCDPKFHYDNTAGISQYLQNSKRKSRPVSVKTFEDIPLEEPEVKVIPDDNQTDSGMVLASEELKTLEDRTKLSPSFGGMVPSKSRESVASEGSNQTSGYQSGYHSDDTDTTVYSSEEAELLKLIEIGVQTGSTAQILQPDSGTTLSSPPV

| IC50 [µM] | Compound |
| --- | --- |
| > 10 | CC(C)(C)NC(=O)c1ccc(-c2nnc(Nc3ccc(OC(F)(F)Cl)cc3)c3ccccc23)cc1 |
| 2 | COc1ccc(Nc2nnc(-c3ccc(C(N)=O)cc3)c3ccccc23)cc1 |
| 1.1 | O=C(NCCO)c1ccc(-c2nnc(Nc3ccc(OC(F)(F)Cl)cc3)c3ccccc23)cc1 |
| > 10 | CCOc1ccc(-c2nnc(Nc3ccc(C)cc3)c3ccccc23)cc1 |
| > 10 | NC(=O)c1ccc(-c2nnc(Nc3ccc(S(N)(=O)=O)cc3)c3ccccc23)cc1 |
| > 10 | Cc1ccc(-c2nnc(Nc3ccc(OC(F)(F)Cl)cc3)c3ccccc23)cc1S(=O)(=O)NC(C)C |

Target: Vascular endothelial growth factor receptor 1 (Homo sapiens) (UniProt P17948)
Sequence (P17948 whole entry): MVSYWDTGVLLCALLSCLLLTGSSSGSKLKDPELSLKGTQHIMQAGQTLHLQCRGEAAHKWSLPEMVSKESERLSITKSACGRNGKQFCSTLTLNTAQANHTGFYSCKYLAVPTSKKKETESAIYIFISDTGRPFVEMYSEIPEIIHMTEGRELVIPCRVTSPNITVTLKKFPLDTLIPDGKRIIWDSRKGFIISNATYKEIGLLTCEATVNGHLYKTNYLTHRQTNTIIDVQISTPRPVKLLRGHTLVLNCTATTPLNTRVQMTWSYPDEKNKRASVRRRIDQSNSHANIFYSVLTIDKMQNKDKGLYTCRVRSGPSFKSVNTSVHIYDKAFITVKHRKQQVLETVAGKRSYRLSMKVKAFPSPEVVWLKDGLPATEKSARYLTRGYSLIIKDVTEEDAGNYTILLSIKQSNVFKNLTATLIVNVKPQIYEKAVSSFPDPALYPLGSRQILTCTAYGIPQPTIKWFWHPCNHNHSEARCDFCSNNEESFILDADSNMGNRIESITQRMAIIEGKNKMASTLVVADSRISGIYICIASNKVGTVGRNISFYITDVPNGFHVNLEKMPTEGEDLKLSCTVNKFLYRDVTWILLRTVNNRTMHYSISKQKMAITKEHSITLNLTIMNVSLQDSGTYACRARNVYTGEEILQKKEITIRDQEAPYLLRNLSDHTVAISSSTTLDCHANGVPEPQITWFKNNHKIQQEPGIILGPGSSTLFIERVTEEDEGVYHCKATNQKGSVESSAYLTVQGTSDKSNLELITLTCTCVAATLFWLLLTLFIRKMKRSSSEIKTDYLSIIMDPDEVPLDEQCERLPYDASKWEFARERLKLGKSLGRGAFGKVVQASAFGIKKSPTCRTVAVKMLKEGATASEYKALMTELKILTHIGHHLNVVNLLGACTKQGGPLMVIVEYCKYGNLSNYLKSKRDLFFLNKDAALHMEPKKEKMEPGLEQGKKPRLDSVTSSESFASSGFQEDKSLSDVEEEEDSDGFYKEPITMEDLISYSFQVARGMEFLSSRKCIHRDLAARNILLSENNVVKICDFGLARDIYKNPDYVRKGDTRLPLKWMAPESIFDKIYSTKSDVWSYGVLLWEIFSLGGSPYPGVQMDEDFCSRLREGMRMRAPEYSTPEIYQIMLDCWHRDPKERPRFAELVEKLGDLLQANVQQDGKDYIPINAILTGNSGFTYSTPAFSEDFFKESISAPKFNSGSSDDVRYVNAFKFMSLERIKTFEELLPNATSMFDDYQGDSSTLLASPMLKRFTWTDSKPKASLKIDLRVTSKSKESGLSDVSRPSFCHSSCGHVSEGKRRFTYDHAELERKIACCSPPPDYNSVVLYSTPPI
Experiment: Percent inhibition of Vascular endothelial growth factor receptor 1 at 10 uM

| inhibition [%] | Compound |
| --- | --- |
| 60 | CC(C)(C)c1cccc(Nc2nnc(-c3ccc(C(N)=O)cc3)c3ccccc23)c1 |
| 73 | CC(C)(C)c1ccc(Nc2nnc(-c3ccc(C(N)=O)cc3)c3ccccc23)cc1 |
| 53 | NC(=O)c1ccc(-c2nnc(Nc3ccc(Br)cc3)c3ccccc23)cc1 |
| 51 | NC(=O)c1ccc(-c2nnc(Nc3cccc(Br)c3)c3ccccc23)cc1 |
